The target in the assay is T1, BRM (Homo sapiens, UniProt P51531).
T1 construct: Western Blot Screen of BRM Degradation in SW1573 Cells; endogenous in cells; host or cells: SW1573 cells
The assay can be described thus: BRM degradation (Dmax and DC50) in SW1573 cells, Western blot screen / In-Cell Western screen. It counts as cell-based. The following applies: overnight (18-20 hours) treatment; for Dmax: read-out: Dmax (%)** (% degraded). The gist of the method:
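SW1573 cells were treated with compound for 18–20 h (final 0.1% DMSO). BRM was quantified either by Western blot of RIPA lysates or by fixed-cell In-Cell Western (LI-COR, 800/680 nm), each normalised to alpha-tubulin, giving Dmax and DC50.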
In general terms: A western blot detects proteins with antibodies after separation by electrophoresis.

We go through 13 molecules from patent US20250059198A1, “BRM DEGRADING COMPOUNDS AND ASSOCIATED METHODS OF USE” (Arvinas Operations, Inc., priority 2021, published 2025).

Usually DC50 stands for the midpoint of the concentration-degradation curve. The low end stands for a more potent degrader, the high end for a less potent degrader. In general, Dmax refers to the largest share of the target that was removed.

T1 sequence (P51531 whole entry): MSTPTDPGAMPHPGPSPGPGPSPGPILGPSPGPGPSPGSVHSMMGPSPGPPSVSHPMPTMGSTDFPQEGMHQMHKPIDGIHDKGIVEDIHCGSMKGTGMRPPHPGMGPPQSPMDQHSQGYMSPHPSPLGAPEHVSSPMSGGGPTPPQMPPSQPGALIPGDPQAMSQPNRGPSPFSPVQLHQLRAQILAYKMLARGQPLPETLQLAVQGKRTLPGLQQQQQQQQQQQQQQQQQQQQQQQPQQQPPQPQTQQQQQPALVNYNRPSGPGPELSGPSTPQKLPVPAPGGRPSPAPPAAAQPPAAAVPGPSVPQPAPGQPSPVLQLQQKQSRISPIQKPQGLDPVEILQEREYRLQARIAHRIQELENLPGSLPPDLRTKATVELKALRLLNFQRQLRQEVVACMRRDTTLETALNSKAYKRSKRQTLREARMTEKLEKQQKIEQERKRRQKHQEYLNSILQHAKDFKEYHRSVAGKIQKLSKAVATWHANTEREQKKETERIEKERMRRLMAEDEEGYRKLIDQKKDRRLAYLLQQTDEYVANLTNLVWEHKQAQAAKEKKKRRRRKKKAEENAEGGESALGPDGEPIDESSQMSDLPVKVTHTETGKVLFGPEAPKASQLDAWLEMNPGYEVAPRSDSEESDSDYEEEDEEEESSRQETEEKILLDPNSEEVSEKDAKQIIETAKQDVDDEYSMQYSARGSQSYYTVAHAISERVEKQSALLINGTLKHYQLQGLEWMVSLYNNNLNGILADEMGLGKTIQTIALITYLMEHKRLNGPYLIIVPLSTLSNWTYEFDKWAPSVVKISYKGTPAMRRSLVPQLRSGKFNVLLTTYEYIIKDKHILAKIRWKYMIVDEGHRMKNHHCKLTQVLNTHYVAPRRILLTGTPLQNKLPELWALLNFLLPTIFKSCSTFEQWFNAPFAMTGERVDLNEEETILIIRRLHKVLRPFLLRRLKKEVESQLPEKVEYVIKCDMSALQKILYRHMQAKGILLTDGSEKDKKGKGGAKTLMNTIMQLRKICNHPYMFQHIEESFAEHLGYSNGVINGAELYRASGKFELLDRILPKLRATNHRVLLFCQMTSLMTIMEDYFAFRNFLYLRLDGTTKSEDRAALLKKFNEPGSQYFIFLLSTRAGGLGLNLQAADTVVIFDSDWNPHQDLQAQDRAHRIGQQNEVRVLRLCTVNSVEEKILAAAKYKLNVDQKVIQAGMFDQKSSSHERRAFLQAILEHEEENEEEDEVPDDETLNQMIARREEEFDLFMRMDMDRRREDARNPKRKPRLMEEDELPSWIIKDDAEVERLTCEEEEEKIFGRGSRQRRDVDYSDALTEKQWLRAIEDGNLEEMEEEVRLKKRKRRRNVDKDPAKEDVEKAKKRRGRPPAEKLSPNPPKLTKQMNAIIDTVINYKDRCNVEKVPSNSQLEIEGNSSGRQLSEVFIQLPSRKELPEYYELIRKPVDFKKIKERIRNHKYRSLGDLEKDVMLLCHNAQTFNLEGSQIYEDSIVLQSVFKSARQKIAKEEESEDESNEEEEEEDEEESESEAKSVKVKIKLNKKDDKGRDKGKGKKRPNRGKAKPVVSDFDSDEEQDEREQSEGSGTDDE

With `Cc1ncsc1-c1ccc([C@H](C)NC(=O)[C@@H]2C[C@@H](O)CN2C(=O)[C@@H](c2cc(N3CCC(CN4CCC5(CC4)CC(N4CCN(C)[C@H](CN6C7CCC6CN(c6cc(-c8ccccc8O)nnc6N)C7)C4)C5)CC3)no2)C(C)C)cc1` [Compound 132, (2S,4R)-1-[(2R)-2-{3-[4-({2-[(3S)-3-({3-[3-amino-6-(2-hydroxyphenyl)pyridazin-4-yl]-3,8-diazabicyclo[3.2.1]octan-8-yl}methyl)-4-methylpiperazin-1-yl]-7-azaspiro[3.5]nonan-7-yl}methyl)piperidin-1-yl]-1,2-oxazol-5-yl}-3-methylbutanoyl]-4-hydroxy-N-[(1S)-1-[4-(4-methyl-1,3-thiazol-5-yl)phenyl]ethyl]pyrrolidine-2-carboxamide], the DC50 is below 2.5 nM and the Dmax is above 75%.

Regarding `Cc1ncsc1-c1ccc([C@H](C)NC(=O)[C@@H]2C[C@@H](O)CN2C(=O)C(c2cc(N3CCC(OC(=O)N4CCC(Oc5cc(N6CCN(c7cc(-c8ccccc8O)nnc7N)CC6)ccn5)CC4)CC3)no2)C(C)C)cc1` (stereo partly drawn) [Compound 144, 1-(5-{1-[(2S,4R)-4-hydroxy-2-{[(1S)-1-[4-(4-methyl-1,3-thiazol-5-yl)phenyl]ethyl]carbamoyl}pyrrolidin-1-yl]-3-methyl-1-oxobutan-2-yl}-1,2-oxazol-3-yl)piperidin-4-yl 4-[(4-{4-[3-amino-6-(2-hydroxyphenyl)pyridazin-4-yl]piperazin-1-yl}pyridin-2-yl)oxy]piperidine-1-carboxylate], the DC50 was 2.5 to 10 nM and the Dmax is above 75%.

Take `Cc1ncsc1-c1ccc([C@H](C)NC(=O)[C@@H]2C[C@@H](O)CN2C(=O)[C@H](c2cc(N3CCN(C(=O)[C@H]4C[C@H](Oc5cc(N6C7CCC6CN(c6cc(-c8ccccc8O)nnc6N)C7)ccn5)C4)CC3)no2)C(C)C)cc1` [Compound 118, (2S,4R)-4-hydroxy-N-[(1S)-1-[4-(4-methyl-1,3-thiazol-5-yl)phenyl]ethyl]-1-[(2S)-3-methyl-2-(3-{4-[(1r,3r)-3-[(4-{3-[3-amino-6-(2-hydroxyphenyl)pyridazin-4-yl]-3,8-diazabicyclo[3.2.1]octan-8-yl}pyridin-2-yl)oxy]cyclobutanecarbonyl]piperazin-1-yl}-1,2-oxazol-5-yl)butanoyl]pyrrolidine-2-carboxamide]: the DC50 was below 2.5 nM and the Dmax is above 75%.

`Cc1ncsc1-c1ccc([C@H](C)NC(=O)[C@@H]2C[C@@H](O)CN2C(=O)[C@H](c2cc(N3CCC(O[C@H]4CC[C@@H](Oc5cc(N6C7CCC6CN(c6cc(-c8ccccc8O)nnc6N)C7)ccn5)CC4)CC3)no2)C(C)C)cc1` [Compound 79, (2S,4R)-4-hydroxy-N-[(1S)-1-[4-(4-methyl-1,3-thiazol-5-yl)phenyl]ethyl]-1-[(2S)-3-methyl-2-[3-(4-{[(1s,4s)-4-[(4-{3-[3-amino-6-(2-hydroxyphenyl)pyridazin-4-yl]-3,8-diazabicyclo[3.2.1]octan-8-yl}pyridin-2-yl)oxy]cyclohexyl]oxy}piperidin-1-yl)-1,2-oxazol-5-yl]butanoyl]pyrrolidine-2-carboxamide] showed a DC50 of at least 30 nM.

For the molecule `Cc1ncsc1-c1ccc([C@H](C)NC(=O)[C@@H]2C[C@@H](O)CN2C(=O)[C@@H](c2cc(N3CCC(OC(=O)N4CCC(O[C@H]5C[C@H](Oc6cc(N7C8CCC7CN(c7cc(-c9ccccc9O)nnc7N)C8)ccn6)C5)CC4)CC3)no2)C(C)C)cc1` [Compound 117, 1-{5-[(2R)-1-[(2S,4R)-4-hydroxy-2-{[(1S)-1-[4-(4-methyl-1,3-thiazol-5-yl)phenyl]ethyl]carbamoyl}pyrrolidin-1-yl]-3-methyl-1-oxobutan-2-yl]-1,2-oxazol-3-yl}piperidin-4-yl 4-[(1r,3r)-3-[(4-{3-[3-amino-6-(2-hydroxyphenyl)pyridazin-4-yl]-3,8-diazabicyclo[3.2.1]octan-8-yl}pyridin-2-yl)oxy]cyclobutoxy]piperidine-1-carboxylate], the DC50 is below 2.5 nM and the Dmax was above 75%.

Regarding `Cc1ncsc1-c1ccc([C@H](C)NC(=O)[C@@H]2C[C@@H](O)CN2C(=O)[C@@H](c2cc(N3CCC(CN4CCC(O[C@H]5C[C@H](N6CC(F)(F)OC7(CCN(c8cc(-c9ccccc9O)nnc8N)CC7)C6)C5)CC4)CC3)no2)C(C)C)cc1` [Compound 55, (2S,4R)-4-hydroxy-N-[(1S)-1-[4-(4-methyl-1,3-thiazol-5-yl)phenyl]ethyl]-1-[(2R)-3-methyl-2-{3-[4-({4-[(1r,3r)-3-{9-[3-amino-6-(2-hydroxyphenyl)pyridazin-4-yl]-2,2-difluoro-1-oxa-4,9-diazaspiro[5.5]undecan-4-yl}cyclobutoxy]piperidin-1-yl}methyl)piperidin-1-yl]-1,2-oxazol-5-yl}butanoyl]pyrrolidine-2-carboxamide], the DC50 was below 2.5 nM and the Dmax is above 75%.

For `Cc1ncsc1-c1ccc([C@H](C)NC(=O)[C@@H]2C[C@@H](O)CN2C(=O)[C@@H](c2cc(N3CCC(CN4CCC5(CC4)CC(N4CCO[C@@H]([C@@H](C)n6cc(C#Cc7cc(-c8ccccc8O)nnc7N)cn6)C4)C5)CC3)no2)C(C)C)cc1` [Compound 99, (2S,4R)-1-[(2R)-2-{3-[4-({2-[(2R)-2-[(1R)-1-(4-{2-[3-amino-6-(2-hydroxyphenyl)pyridazin-4-yl]ethynyl}-1H-pyrazol-1-yl)ethyl]morpholin-4-yl]-7-azaspiro[3.5]nonan-7-yl}methyl)piperidin-1-yl]-1,2-oxazol-5-yl}-3-methylbutanoyl]-4-hydroxy-N-[(1S)-1-[4-(4-methyl-1,3-thiazol-5-yl)phenyl]ethyl]pyrrolidine-2-carboxamide], the DC50 is below 2.5 nM and the Dmax was above 75%.

With `CC(NC(=O)[C@@H]1C[C@@H](O)CN1C(=O)[C@@H](c1cc(N2CCC(CN3CCC(O[C@H]4C[C@H](Oc5cc(N6C7CCC6CN(c6cc(-c8ccccc8O)nnc6N)C7)ccn5)C4)CC3)CC2)no1)C(C)C)c1ccc(C#N)c(F)c1` (stereo partly drawn) [Compound 4, (2S,4R)-N-[1-(4-cyano-3-fluorophenyl)ethyl]-4-hydroxy-1-[(2R)-3-methyl-2-{3-[4-({4-[(1r,3r)-3-[(4-{3-[3-amino-6-(2-hydroxyphenyl)pyridazin-4-yl]-3,8-diazabicyclo[3.2.1]octan-8-yl}pyridin-2-yl)oxy]cyclobutoxy]piperidin-1-yl}methyl)piperidin-1-yl]-1,2-oxazol-5-yl}butanoyl]pyrrolidine-2-carboxamide], the DC50 was below 2.5 nM and the greatest degradation seen (Dmax) was above 75%.

Take `Cc1ncsc1-c1ccc([C@H](C)NC(=O)[C@@H]2C[C@@H](O)CN2C(=O)[C@@H](c2cc(N3CCN(C(=O)N4CC(Oc5cc(N6C7CCC6CN(c6cc(-c8ccccc8O)nnc6N)C7)ccn5)C4)CC3)no2)C(C)C)cc1` [Compound 129, (2S,4R)-1-[(2R)-2-[3-(4-{3-[(4-{3-[3-amino-6-(2-hydroxyphenyl)pyridazin-4-yl]-3,8-diazabicyclo[3.2.1]octan-8-yl}pyridin-2-yl)oxy]azetidine-1-carbonyl}piperazin-1-yl)-1,2-oxazol-5-yl]-3-methylbutanoyl]-4-hydroxy-N-[(1S)-1-[4-(4-methyl-1,3-thiazol-5-yl)phenyl]ethyl]pyrrolidine-2-carboxamide]: the DC50 is 2.5 to 10 nM and the Dmax is above 75%.

For the molecule `CC(C)[C@H](C(=O)N1C[C@H](O)C[C@H]1C(=O)N[C@@H](C)c1ccc(-c2scnc2C#CCOCCOCCOc2cc(N3C4CCC3CN(c3cc(-c5ccccc5O)nnc3N)C4)ccn2)cc1)N1Cc2ccccc2C1=O` [Compound 86], the DC50 fell in the range of 2.5 to 10 nM and the Dmax was above 75%.

Turning to `Cc1ncsc1-c1ccc([C@H](C)NC(=O)[C@@H]2C[C@@H](O)CN2C(=O)[C@@H](c2cc(N3CCC(O[C@H]4CC[C@H](Oc5cc(N6C7CCC6CN(c6cc(-c8ccccc8O)nnc6N)C7)ccn5)CC4)CC3)no2)C(C)C)cc1` [Compound 136, (2S,4R)-4-hydroxy-N-[(1S)-1-[4-(4-methyl-1,3-thiazol-5-yl)phenyl]ethyl]-1-[(2R)-3-methyl-2-[3-(4-{[(1r,4r)-4-[(4-{3-[3-amino-6-(2-hydroxyphenyl)pyridazin-4-yl]-3,8-diazabicyclo[3.2.1]octan-8-yl}pyridin-2-yl)oxy]cyclohexyl]oxy}piperidin-1-yl)-1,2-oxazol-5-yl]butanoyl]pyrrolidine-2-carboxamide], the DC50 was below 2.5 nM and the Dmax is above 75%.

`CC(C)[C@@H](C(=O)N1C[C@H](O)C[C@H]1C(=O)N[C@@H](C)c1ccc(-c2ccnn2C)cc1)c1cc(N2CCC(OC3CCN(CC4CC(N5CCC([C@H](C)n6cc(C#Cc7cc(-c8ccccc8O)nnc7N)cn6)CC5)C4)CC3)CC2)no1` (stereo partly drawn) [Compound 112, (2S,4R)-1-[(2R)-2-{3-[4-({1-[(3-{4-[(1S)-1-(4-{2-[3-amino-6-(2-hydroxyphenyl)pyridazin-4-yl]ethynyl}-1H-pyrazol-1-yl)ethyl]piperidin-1-yl}cyclobutyl)methyl]piperidin-4-yl}oxy)piperidin-1-yl]-1,2-oxazol-5-yl}-3-methylbutanoyl]-4-hydroxy-N-[(1S)-1-[4-(1-methyl-1H-pyrazol-5-yl)phenyl]ethyl]pyrrolidine-2-carboxamide]: the DC50 was below 2.5 nM and the Dmax is above 75%.

Turning to `Cc1ncsc1-c1ccc([C@H](C)NC(=O)[C@@H]2C[C@@H](O)CN2C(=O)[C@H](c2cc(N3CCC(OC(=O)N4CCC(O[C@H]5C[C@H](Oc6cc(N7C8CCC7CN(c7cc(-c9ccccc9O)nnc7N)C8)ccn6)C5)CC4)CC3)no2)C(C)C)cc1` [Compound 116, 1-{5-[(2S)-1-[(2S,4R)-4-hydroxy-2-([(1S)-1-[4-(4-methyl-1,3-thiazol-5-yl)phenyl]ethyl]carbamoyl}pyrrolidin-1-yl]-3-methyl-1-oxobutan-2-yl]-1,2-oxazol-3-yl}piperidin-4-yl 4-[(1r,3r)-3-[(4-{3-[3-amino-6-(2-hydroxyphenyl)pyridazin-4-yl]-3,8-diazabicyclo[3.2.1]octan-8-yl}pyridin-2-yl)oxy]cyclobutoxy]piperidine-1-carboxylate], the DC50 was below 2.5 nM and the Dmax was above 75%.
